Patent EP4745135A1 (Gluetacs Therapeutics (Shanghai) Co., Ltd., priority 2023, dated 2025)

Legend:
[1] = tested on: Human multiple myeloma cell (MM.1S); test: Tumor cell proliferation inhibition (CellTiter-Meiluncell luminescent cell viability assay); settings: for IC50 / inhibition at 0.01 µM / inhibition at 0.5 µM: Homo sapiens, MM1.S, 96 h; for IC50: read-out: Inhibitory activity (IC50, nM) on tumor cell proliferation, MM.1S; for inhibition at 0.01 µM: read-out: Inhibition Rate at 10 nM (%); for inhibition at 0.5 µM: read-out: Inhibition Rate at 500 nM (%)
[2] = target: T1, human Cereblon WT GST-tagged protein (Homo sapiens, UniProt Q96SW2); test: CRBN-binding affinity, HTRF (CEREBLON BINDING kit); settings: for IC50: CRBN binding, HTRF, 3 hours at room temperature, read-out: HTRF IC50; for inhibition at 0.5 µM: read-out: Inhibition Rate at 0.5 µM (%); for inhibition at 2 µM: read-out: Inhibition Rate at 2 µM (%)
T1 construct: purchased CISBIO 64BDCRBNPEH

GSPT1 = test: Western blot, degradation of substrate protein in hPBMCs; type: cell-based, Human
CK1α = target: T2, CK1α (Homo sapiens, UniProt P48729+Q96SW2); test: as above; type: cell-based
T2 construct: effects of the compounds of the present disclosure on the expression of target proteins in cells; endogenous in cells; host or cells: human PBMCs (Milecell Biotechnologies)

WEE1 = target: T3, WEE1 (Homo sapiens, UniProt P30291+Q96SW2); test: as above; type: cell-based
T3 construct: effects of the compounds of the present disclosure on the expression of target proteins in cells; endogenous in cells; host or cells: human PBMCs (Milecell Biotechnologies)

IKZF1 = target: T4, IKZF1 (Homo sapiens, UniProt Q13422+Q96SW2); test: as above; type: cell-based
T4 construct: effects of the compounds of the present disclosure on the expression of target proteins in cells; endogenous in cells; host or cells: human PBMCs (Milecell Biotechnologies)

IKZF3 = target: T5, IKZF3 (Homo sapiens, UniProt Q96SW2+Q9UKT9); test: as above; type: cell-based
T5 construct: effects of the compounds of the present disclosure on the expression of target proteins in cells; endogenous in cells; host or cells: human PBMCs (Milecell Biotechnologies)

IKZF2 = target: T6, IKZF2 (Homo sapiens, UniProt Q96SW2+Q9UKS7); test: as above; type: cell-based
T6 construct: effects of the compounds of the present disclosure on the expression of target proteins in cells; endogenous in cells; host or cells: human PBMCs (Milecell Biotechnologies)

[3] = Western blot, 24 hours of compound treatment, compounds tested at 50 nM and 500 nM (concentration for the table not stated)
[4] = 24 hours treatment, compounds at 50 nM and 500 nM (concentration behind the class not stated)

T6 sequence (Q9UKS7 whole entry): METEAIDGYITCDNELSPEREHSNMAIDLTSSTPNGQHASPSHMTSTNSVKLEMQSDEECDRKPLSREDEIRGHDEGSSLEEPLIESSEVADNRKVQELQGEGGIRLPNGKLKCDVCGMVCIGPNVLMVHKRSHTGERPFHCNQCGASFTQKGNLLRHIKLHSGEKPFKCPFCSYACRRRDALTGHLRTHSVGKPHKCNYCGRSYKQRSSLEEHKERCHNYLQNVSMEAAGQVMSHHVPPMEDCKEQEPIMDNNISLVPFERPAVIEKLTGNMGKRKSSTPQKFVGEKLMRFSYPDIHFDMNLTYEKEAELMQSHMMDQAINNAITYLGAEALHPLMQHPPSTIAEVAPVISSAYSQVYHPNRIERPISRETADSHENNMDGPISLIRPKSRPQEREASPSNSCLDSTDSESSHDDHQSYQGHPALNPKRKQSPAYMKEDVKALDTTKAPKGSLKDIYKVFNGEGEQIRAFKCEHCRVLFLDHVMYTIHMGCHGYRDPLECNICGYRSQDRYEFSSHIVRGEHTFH
T6 sequence (Q96SW2 whole entry): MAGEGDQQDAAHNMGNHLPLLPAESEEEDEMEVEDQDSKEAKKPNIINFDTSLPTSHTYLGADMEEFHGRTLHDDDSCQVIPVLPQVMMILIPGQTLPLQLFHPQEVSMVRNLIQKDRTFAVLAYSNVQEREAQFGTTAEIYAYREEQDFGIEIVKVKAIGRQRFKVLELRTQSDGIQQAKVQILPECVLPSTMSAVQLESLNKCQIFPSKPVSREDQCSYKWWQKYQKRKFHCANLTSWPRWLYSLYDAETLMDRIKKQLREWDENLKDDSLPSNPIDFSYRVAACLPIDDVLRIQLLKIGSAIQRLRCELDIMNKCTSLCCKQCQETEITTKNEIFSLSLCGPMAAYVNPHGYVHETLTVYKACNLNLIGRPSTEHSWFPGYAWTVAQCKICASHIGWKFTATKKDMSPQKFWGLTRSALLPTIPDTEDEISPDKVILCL
T6 sequence (Q16531 whole entry partner): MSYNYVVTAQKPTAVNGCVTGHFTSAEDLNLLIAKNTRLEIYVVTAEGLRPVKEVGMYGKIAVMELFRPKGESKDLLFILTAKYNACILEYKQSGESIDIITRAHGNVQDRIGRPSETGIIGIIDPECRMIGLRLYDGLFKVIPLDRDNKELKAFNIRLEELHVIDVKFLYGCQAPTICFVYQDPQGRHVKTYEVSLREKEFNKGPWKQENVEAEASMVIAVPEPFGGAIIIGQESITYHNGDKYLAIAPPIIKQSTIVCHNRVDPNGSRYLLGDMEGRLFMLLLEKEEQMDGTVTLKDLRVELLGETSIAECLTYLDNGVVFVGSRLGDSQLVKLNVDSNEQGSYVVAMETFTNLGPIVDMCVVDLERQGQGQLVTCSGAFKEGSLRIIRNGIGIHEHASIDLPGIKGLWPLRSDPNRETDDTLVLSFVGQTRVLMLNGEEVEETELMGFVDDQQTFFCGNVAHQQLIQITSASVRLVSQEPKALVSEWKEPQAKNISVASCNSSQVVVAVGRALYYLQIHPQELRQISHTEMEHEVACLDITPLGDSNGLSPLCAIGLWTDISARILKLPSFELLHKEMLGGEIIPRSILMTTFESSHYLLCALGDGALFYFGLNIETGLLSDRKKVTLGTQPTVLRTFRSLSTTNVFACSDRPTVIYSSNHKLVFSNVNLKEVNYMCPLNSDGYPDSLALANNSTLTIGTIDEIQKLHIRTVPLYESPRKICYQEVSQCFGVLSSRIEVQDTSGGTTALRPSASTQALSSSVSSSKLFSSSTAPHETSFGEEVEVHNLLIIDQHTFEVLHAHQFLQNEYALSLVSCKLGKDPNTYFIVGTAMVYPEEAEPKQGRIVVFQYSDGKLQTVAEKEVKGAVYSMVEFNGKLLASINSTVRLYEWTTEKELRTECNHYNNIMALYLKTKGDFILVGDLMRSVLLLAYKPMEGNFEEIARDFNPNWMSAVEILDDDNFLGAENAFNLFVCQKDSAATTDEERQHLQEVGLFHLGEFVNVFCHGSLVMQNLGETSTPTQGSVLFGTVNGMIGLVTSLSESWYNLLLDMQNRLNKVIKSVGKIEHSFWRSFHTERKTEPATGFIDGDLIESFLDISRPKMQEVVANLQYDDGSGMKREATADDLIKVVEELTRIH
T3 sequence (P30291 whole entry): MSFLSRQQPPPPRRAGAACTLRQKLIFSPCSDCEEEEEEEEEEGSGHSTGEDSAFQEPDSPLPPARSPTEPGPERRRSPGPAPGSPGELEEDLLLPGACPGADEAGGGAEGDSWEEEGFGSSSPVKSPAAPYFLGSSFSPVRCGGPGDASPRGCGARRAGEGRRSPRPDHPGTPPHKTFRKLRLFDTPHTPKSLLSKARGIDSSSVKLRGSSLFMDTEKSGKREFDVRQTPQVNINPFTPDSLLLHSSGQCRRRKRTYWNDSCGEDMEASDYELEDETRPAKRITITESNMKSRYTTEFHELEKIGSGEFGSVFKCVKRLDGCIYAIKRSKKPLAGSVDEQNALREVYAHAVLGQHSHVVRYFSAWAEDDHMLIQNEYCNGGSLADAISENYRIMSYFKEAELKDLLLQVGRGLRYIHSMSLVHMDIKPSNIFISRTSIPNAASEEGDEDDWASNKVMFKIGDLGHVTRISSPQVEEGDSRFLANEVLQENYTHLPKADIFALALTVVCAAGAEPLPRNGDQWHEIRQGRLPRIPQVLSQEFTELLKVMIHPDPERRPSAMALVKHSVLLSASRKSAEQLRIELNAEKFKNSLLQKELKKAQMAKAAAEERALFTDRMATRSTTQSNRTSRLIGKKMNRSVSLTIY
T3 sequence (Q96SW2 whole entry): as the sequence (Q96SW2 whole entry) above
T3 sequence (Q16531 whole entry partner): as the sequence (Q16531 whole entry partner) above
T4 sequence (Q13422 whole entry): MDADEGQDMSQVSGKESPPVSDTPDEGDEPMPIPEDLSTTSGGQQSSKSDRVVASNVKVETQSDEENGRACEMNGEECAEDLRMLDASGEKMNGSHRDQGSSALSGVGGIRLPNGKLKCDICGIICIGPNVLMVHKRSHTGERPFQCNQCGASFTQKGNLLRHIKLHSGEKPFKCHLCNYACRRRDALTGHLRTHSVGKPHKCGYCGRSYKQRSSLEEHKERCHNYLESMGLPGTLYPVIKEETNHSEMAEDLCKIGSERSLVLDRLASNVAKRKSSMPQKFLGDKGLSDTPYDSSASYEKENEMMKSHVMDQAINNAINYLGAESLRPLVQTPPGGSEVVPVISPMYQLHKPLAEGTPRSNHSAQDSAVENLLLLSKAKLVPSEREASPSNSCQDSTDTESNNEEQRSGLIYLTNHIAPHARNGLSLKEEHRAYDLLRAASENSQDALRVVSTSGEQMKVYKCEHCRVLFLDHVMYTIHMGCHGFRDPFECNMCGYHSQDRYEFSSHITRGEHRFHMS
T4 sequence (Q96SW2 whole entry): as the sequence (Q96SW2 whole entry) above
T4 sequence (Q16531 whole entry partner): as the sequence (Q16531 whole entry partner) above
T5 sequence (Q9UKT9 whole entry): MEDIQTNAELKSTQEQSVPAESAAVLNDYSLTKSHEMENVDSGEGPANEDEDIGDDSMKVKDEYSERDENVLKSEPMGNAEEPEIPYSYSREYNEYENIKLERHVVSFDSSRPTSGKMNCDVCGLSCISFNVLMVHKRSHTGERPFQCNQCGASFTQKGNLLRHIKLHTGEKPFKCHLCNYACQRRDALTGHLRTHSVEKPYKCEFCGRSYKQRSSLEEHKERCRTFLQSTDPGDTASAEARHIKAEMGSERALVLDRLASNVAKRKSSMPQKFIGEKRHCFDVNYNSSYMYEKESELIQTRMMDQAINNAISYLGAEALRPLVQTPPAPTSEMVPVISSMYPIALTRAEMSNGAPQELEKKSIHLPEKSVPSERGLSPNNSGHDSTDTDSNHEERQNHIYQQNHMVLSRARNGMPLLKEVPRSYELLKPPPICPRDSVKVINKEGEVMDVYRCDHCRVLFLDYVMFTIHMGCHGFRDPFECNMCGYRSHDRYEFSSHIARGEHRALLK
T5 sequence (Q96SW2 whole entry): as the sequence (Q96SW2 whole entry) above
T5 sequence (Q16531 whole entry partner): as the sequence (Q16531 whole entry partner) above
T1 sequence (Q96SW2 whole entry): as the sequence (Q96SW2 whole entry) above
T2 sequence (P48729 whole entry): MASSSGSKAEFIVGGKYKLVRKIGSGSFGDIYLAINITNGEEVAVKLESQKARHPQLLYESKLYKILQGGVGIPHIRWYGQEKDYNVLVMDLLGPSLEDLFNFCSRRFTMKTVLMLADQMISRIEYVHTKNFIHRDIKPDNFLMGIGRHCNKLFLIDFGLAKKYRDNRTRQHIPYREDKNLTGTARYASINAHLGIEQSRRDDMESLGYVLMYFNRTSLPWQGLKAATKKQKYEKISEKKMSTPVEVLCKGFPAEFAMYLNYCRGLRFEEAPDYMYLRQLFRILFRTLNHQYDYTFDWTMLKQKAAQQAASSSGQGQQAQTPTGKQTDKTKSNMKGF
T2 sequence (Q96SW2 whole entry): as the sequence (Q96SW2 whole entry) above
T2 sequence (Q16531 whole entry partner): as the sequence (Q16531 whole entry partner) above

inhibition at 0.5 µM [2]	inhibition at 2 µM [2]	SMILES	IC50 [1]	IC50 [2]	GSPT1 substrate protein remaining % (GSPT1; [3])	CK1α substrate protein remaining % (CK1α; [3])	Wee1 substrate protein remaining % (WEE1; [3])	IKZF 1 substrate protein remaining % (IKZF1; [3])	IKZF3 substrate protein remaining % (IKZF3; [3])	IKZF2 substrate protein remaining % (IKZF2; [3])	inhibition at 0.01 µM [1]	inhibition at 0.5 µM [1]	GSPT1 substrate protein remaining % (GSPT1; [4])	CK1α substrate protein remaining % (CK1α; [4])	Wee1 substrate protein remaining % (WEE1; [4])	IKZF 1 substrate protein remaining % (IKZF1; [4])	IKZF3 substrate protein remaining % (IKZF3; [4])	IKZF2 substrate protein remaining % (IKZF2; [4])	Inhibition Rate at 10 nM (%) ([1]; MM.1S, 10 nM, 96 hours)
–	–	O=C1CCC(N2Cc3cc(CN4C5CC4CN(c4cccc(Cl)c4Cl)C5)ccc3C2=S)C(=O)N1 (stereo not shown) [GT-05182, 3-(5-((3-(2,3-dichlorophenyl)-3,6-diazabicyclo[3.1.1]heptan-6-yl)methyl)-1-thioxoisoindolin-2-yl)piperidine-2,6-dione]	100 to 500 nM	100 to 500 nM	A (0% ≤ substrate protein remaining % ≤ 80%)	B (80%< substrate protein remaining %≤ 100%)	A (0% ≤ substrate protein remaining % ≤ 80%)	B (80%< substrate protein remaining %≤ 100%)	B (80%< substrate protein remaining %≤ 100%)	B (80%< substrate protein remaining %≤ 100%)	–	–	–	–	–	–	–	–	–
–	–	O=C1CCC(N2Cc3cc(CN4C[C@@H]5C[C@H]4CN5c4cccc(Cl)c4Cl)ccc3C2=S)C(=O)N1 (stereo partly drawn) [GT-05183, 3-(5-(((1S,4S)-5-(2,3-dichlorophenyl)-2,5-diazabicyclo[2.2.1]heptan-2-yl)methyl)-1-thioxoisoindolin-2-yl)piperidine-2,6-dione]	50 to 100 nM	100 to 500 nM	A (0% ≤ substrate protein remaining % ≤ 80%)	B (80%< substrate protein remaining %≤ 100%)	B (80%< substrate protein remaining %≤ 100%)	B (80%< substrate protein remaining %≤ 100%)	A (0% ≤ substrate protein remaining % ≤ 80%)	B (80%< substrate protein remaining %≤ 100%)	–	–	–	–	–	–	–	–	–
–	–	O=C1CCC(N2Cc3cc(CN4CCC(N5CCc6cc(F)ccc65)CC4)ccc3C2=S)C(=O)N1 (stereo not shown) [GT-05244, 3-(5-((4-(5-fluoroindolin-1-yl)piperidin-1-yl)methyl)-1-thioxoisoindolin-2-yl)piperidine-2,6-dione]	100 to 500 nM	100 to 500 nM	A (0% ≤ substrate protein remaining % ≤ 80%)	B (80%< substrate protein remaining %≤ 100%)	B (80%< substrate protein remaining %≤ 100%)	B (80%< substrate protein remaining %≤ 100%)	B (80%< substrate protein remaining %≤ 100%)	A (0% ≤ substrate protein remaining % ≤ 80%)	–	–	–	–	–	–	–	–	–
–	–	O=C1CCC(N2Cc3cc(CN4CC=C(c5ccnc6cc(F)ccc56)CC4)ccc3C2=S)C(=O)N1 (stereo not shown) [GT-05245, 3-(5-((4-(7-fluoroquinolin-4-yl)-3,6-dihydropyridin-1(2H)-yl)methyl)-1-thioxoisoindolin-2-yl)piperidine-2,6-dione]	10 to 50 nM	< 100 nM	A (0% ≤ substrate protein remaining % ≤ 80%)	B (80%< substrate protein remaining %≤ 100%)	A (0% ≤ substrate protein remaining % ≤ 80%)	B (80%< substrate protein remaining %≤ 100%)	A (0% ≤ substrate protein remaining % ≤ 80%)	A (0% ≤ substrate protein remaining % ≤ 80%)	–	–	–	–	–	–	–	–	–
–	–	O=C1CCC(N2Cc3cc(CN4CC=C(c5c[nH]c6ncccc56)CC4)ccc3C2=S)C(=O)N1 (stereo not shown) [GT-05248, 3-(5-((4-(1H-pyrrolo[2,3-b]pyridin-3-yl)-3,6-dihydropyridin-1(2H)-yl)methyl)-1-thioxoisoindolin-2-yl)piperidine-2,6-dione]	50 to 100 nM	< 100 nM	A (0% ≤ substrate protein remaining % ≤ 80%)	B (80%< substrate protein remaining %≤ 100%)	A (0% ≤ substrate protein remaining % ≤ 80%)	A (0% ≤ substrate protein remaining % ≤ 80%)	A (0% ≤ substrate protein remaining % ≤ 80%)	A (0% ≤ substrate protein remaining % ≤ 80%)	–	–	–	–	–	–	–	–	–
–	–	O=C1CC[C@H](N2Cc3c(OCc4ccc(CN5CCOCC5)cc4)cccc3C2=S)C(=O)N1 [GT-05712, (S)-3-(4-((4-(morpholinomethyl)benzyl)oxy)-1-thioxoisoindolin-2-yl)piperidine-2,6-dione]	–	< 100 nM	–	–	–	–	–	–	50 to 60%	70 to 80%	A (0% ≤ substrate protein remaining % ≤ 80%)	B (80%< substrate protein remaining %≤ 100%)	B (80%< substrate protein remaining %≤ 100%)	A (0% ≤ substrate protein remaining % ≤ 80%)	A (0% ≤ substrate protein remaining % ≤ 80%)	B (80%< substrate protein remaining %≤ 100%)	–
30 to 40%	53 to 60%	O=C1CCC(N2Cc3c(CN4CCN(C(c5ccccc5)c5cccnc5)CC4)cccc3C2=S)C(=O)N1 (stereo not shown) [GT-08193, 3-(4-((4-(phenyl(pyridin-3-yl)methyl)piperazin-1-yl)methyl)-1-thioxoisoindolin-2-yl)piperidine-2,6-dione]	–	–	A (0% ≤ substrate protein remaining % ≤ 80%)	B (80%< substrate protein remaining %≤ 100%)	A (0% ≤ substrate protein remaining % ≤ 80%)	B (80%< substrate protein remaining %≤ 100%)	B (80%< substrate protein remaining %≤ 100%)	A (0% ≤ substrate protein remaining % ≤ 80%)	30 to 40%	40 to 50%	–	–	–	–	–	–	–
53 to 60%	80 to 100%	COc1cccc(N2CCN(Cc3ccc4c(c3)CN(C3CCC(=O)NC3=O)C4=S)CC2)c1 (stereo not shown) [GT-08237, 3-(5-((4-(3-methoxyphenyl)piperazin-1-yl)methyl)-1-thioxoisoindolin-2-yl)piperidine-2,6-dione]	–	–	A (0% ≤ substrate protein remaining % ≤ 80%)	B (80%< substrate protein remaining %≤ 100%)	B (80%< substrate protein remaining %≤ 100%)	B (80%< substrate protein remaining %≤ 100%)	B (80%< substrate protein remaining %≤ 100%)	B (80%< substrate protein remaining %≤ 100%)	–	40 to 50%	–	–	–	–	–	–	1la6
40 to 53%	80 to 100%	O=C1CCC(N2Cc3cc(CN4CCN(c5ccccc5Cl)CC4)ccc3C2=S)C(=O)N1 (stereo not shown) [GT-08241, 3-(5-((4-(2-chlorophenyl)piperazin-1-yl)methyl)-1-thioxoisoindolin-2-yl)piperidine-2,6-dione]	–	–	A (0% ≤ substrate protein remaining % ≤ 80%)	B (80%< substrate protein remaining %≤ 100%)	B (80%< substrate protein remaining %≤ 100%)	B (80%< substrate protein remaining %≤ 100%)	B (80%< substrate protein remaining %≤ 100%)	B (80%< substrate protein remaining %≤ 100%)	20 to 30%	70 to 80%	–	–	–	–	–	–	–
